Reference: US9174952B2, “Substituted 3-thiazoloamino-propionic acid derivatives and their use as pharmaceuticals” (SANOFI, priority 2011, dated 2015)

Each compound was assayed against T1, Recombinant human cathepsin A (Homo sapiens, UniProt P10619) (assay: Cathepsin A inhibitory activity). Conditions: activated recombinant human cathepsin A 833 ng/ml, Bodipy FL-labeled bradykinin substrate 2 μM, pH 5.5, room temperature.
T1 construct: Recombinant human cathepsin A (residues 29-480, with a C-terminal 10-His tag); 10-His (C); purchased R&D Systems 1049-SE
T1 sequence (P10619 29-326 limits assumed): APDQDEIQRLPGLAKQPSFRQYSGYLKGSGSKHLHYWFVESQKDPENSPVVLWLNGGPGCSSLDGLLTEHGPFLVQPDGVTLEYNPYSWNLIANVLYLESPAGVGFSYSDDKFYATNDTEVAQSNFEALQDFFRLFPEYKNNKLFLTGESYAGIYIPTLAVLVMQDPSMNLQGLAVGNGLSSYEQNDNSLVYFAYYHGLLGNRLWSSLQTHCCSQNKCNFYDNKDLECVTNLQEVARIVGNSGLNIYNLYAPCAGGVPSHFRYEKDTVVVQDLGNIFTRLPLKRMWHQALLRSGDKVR
T1 sequence (P10619 327-480 limits assumed): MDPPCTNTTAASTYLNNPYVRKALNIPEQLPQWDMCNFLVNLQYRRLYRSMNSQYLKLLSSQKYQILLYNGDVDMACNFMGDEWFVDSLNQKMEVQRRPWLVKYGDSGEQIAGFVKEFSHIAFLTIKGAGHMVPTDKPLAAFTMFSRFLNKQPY
Assay type: biochemical
In short: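 Enzyme (residues 29-480, C-terminal His tag) pre-activated by cathepsin L at 37° C, then quenched with E-64. Compound preincubated 15 min at room temperature in 25 mM MES pH 5.5 with 5 mM DTT, then 2 μM Bodipy FL-bradykinin added for 15 min at 833 ng/ml enzyme. Product/substrate separated by microfluidic capillary electrophoresis; IC50 from multi-concentration inhibition.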

Row | Compound | IC50
1 | O=C(O)C[C@H](NC(=O)c1csc(-c2ccccc2)n1)c1ccccc1C(F)(F)F [Example 62, (S)-3-[(2-Phenyl-thiazole-4-carbonyl)-amino]-3-(2-trifluoromethyl-phenyl)-propionic acid] | 2630 nM
2 | O=C(NCC(C(=O)O)c1ccccc1)c1csc(-c2cccc(Cl)c2)n1 (centres unmarked) [Example 123, 3-{[2-(3-Chloro-phenyl)-thiazole-4-carbonyl]-amino}-2-phenyl-propionic acid] | > 10000 nM
3 | Cc1ccccc1-c1nc(C(=O)NC(CC(=O)O)C2CCCCC2)cs1 (centres unmarked) [Example 128, 3-Cyclohexyl-3-[(2-o-tolyl-thiazole-4-carbonyl)-amino]-propionic acid] | 810 nM
4 | O=C(O)C[C@H](NC(=O)c1csc(-c2ccc(Cl)cc2)n1)c1cccc(F)c1 [Example 105, (S)-3-{[2-(4-Chloro-phenyl)-thiazole-4-carbonyl]-amino}-3-(3-fluoro-phenyl)-propionic acid] | 2960 nM
5 | O=C(O)CC(Cc1ccccc1)NC(=O)c1csc(-c2ccc(C(F)(F)F)cc2)n1 (centres unmarked) [Example 135, 4-Phenyl-3-{[2-(4-trifluoromethyl-phenyl)-thiazole-4-carbonyl]-amino}-butyric acid] | 22200 nM
6 | O=C(O)C[C@H](NC(=O)c1csc(-c2ccccc2F)n1)c1ccccc1 [Example 88, (S)-3-{[2-(2-Fluoro-phenyl)-thiazole-4-carbonyl]-amino}-3-phenyl-propionic acid] | 923 nM
7 | O=C(O)CC(Cc1ccccc1)NC(=O)c1csc(-c2cccc(Cl)c2)n1 (centres unmarked) [Example 125, 3-{[2-(3-Chloro-phenyl)-thiazole-4-carbonyl]-amino}-4-phenyl-butyric acid] | 9060 nM
8 | O=C(O)C[C@H](NC(=O)c1csc(-c2ccccc2Cl)n1)c1ccccc1C(F)(F)F [Example 77, (S)-3-{[2-(2-Chloro-phenyl)-thiazole-4-carbonyl]-amino}-3-(2-trifluoromethyl-phenyl)-propionic acid] | 712 nM
9 | O=C(O)[C@@H]1CN(C(=O)c2nc(-c3ccc(C(F)(F)F)cc3)cs2)C[C@H]1c1ccccc1 [Example 103, (3S,4R)-4-Phenyl-1-[4-(4-trifluoromethyl-phenyl)-thiazole-2-carbonyl]-pyrrolidine-3-carboxylic acid] | > 10000 nM
10 | O=C(O)CC(Cc1ccccc1)NC(=O)c1csc(-c2ccccc2F)n1 (centres unmarked) [Example 122, 3-{[2-(2-Fluoro-phenyl)-thiazole-4-carbonyl]-amino}-4-phenyl-butyric acid] | 4420 nM
11 | Cc1ccccc1-c1nc(C(=O)N[C@@H](CC(=O)O)c2ccc(Cl)cc2Cl)cs1 [Example 21, (S)-3-(2,4-Dichloro-phenyl)-3-[(2-o-tolyl-thiazole-4-carbonyl)-amino]-propionic acid] | 886 nM
12 | O=C(O)C[C@H](NC(=O)c1csc(-c2ccc(C(F)(F)F)cc2)n1)c1ccccc1F [Example 37, (S)-3-(2-Fluoro-phenyl)-3-{[2-(4-trifluoromethyl-phenyl)-thiazole-4-carbonyl]-amino}-propionic acid] | 14700 nM
13 | O=C(O)CC(Cc1ccccc1)NC(=O)c1csc(-c2cccc(Cl)c2Cl)n1 (centres unmarked) [Example 117, 3-{[2-(2,3-Dichloro-phenyl)-thiazole-4-carbonyl]-amino}-4-phenyl-butyric acid] | 2750 nM
14 | O=C(O)C[C@H](NC(=O)c1csc(-c2cccc(Cl)c2)n1)c1ccccc1C(F)(F)F [Example 93, (S)-3-{[2-(3-Chloro-phenyl)-thiazole-4-carbonyl]-amino}-3-(2-trifluoromethyl-phenyl)-propionic acid] | 10400 nM
15 | C[C@@](CC(=O)O)(NC(=O)c1nc(-c2ccccc2)cs1)c1ccccc1 [Example 4, (S)-3-Phenyl-3-[(4-phenyl-thiazole-2-carbonyl)-amino]-butyric acid] | > 10000 nM
16 | O=C(O)C[C@H](NC(=O)c1nc(-c2ccccc2)cs1)c1cccc(C(F)(F)F)c1 [Example 99, (S)-3-[(4-Phenyl-thiazole-2-carbonyl)-amino]-3-(3-trifluoromethyl-phenyl)-propionic acid] | 3310 nM

These reach a lower IC50. Values come first.

Row | IC50 | Compound
17 | 61 nM | Cc1ccccc1[C@H](CC(=O)O)NC(=O)c1csc(-c2ccccc2)n1 [Example 63, (S)-3-[(2-Phenyl-thiazole-4-carbonyl)-amino]-3-o-tolyl-propionic acid]
18 | 627 nM | O=C(O)C[C@H](NC(=O)c1nc(-c2ccccc2)cs1)c1ccc(Cl)cc1 [Example 69, (S)-3-(4-Chloro-phenyl)-3-[(4-phenyl-thiazole-2-carbonyl)-amino]-propionic acid]
19 | 542 nM | O=C(O)C[C@H](NC(=O)c1nc(-c2ccccc2)cs1)c1cccc(F)c1 [Example 55, (S)-3-(3-Fluoro-phenyl)-3-[(4-phenyl-thiazole-2-carbonyl)-amino]-propionic acid]
20 | 85 nM | Cc1ccccc1-c1nc(C(=O)N[C@@H](CC(=O)O)c2cccc(Cl)c2Cl)cs1 [Example 12, (S)-3-(2,3-Dichloro-phenyl)-3-[(2-o-tolyl-thiazole-4-carbonyl)-amino]-propionic acid]
21 | 209 nM | O=C(O)C[C@H](NC(=O)c1csc(-c2ccccc2F)n1)c1cccc(Cl)c1Cl [Example 15, (S)-3-(2,3-Dichloro-phenyl)-3-{[2-(2-fluoro-phenyl)-thiazole-4-carbonyl]-amino}-propionic acid]
22 | 88.9 nM | Cc1ccccc1[C@H](CC(=O)O)NC(=O)c1nc(-c2ccccc2)cs1 [Example 136, (S)-3-[(4-Phenyl-thiazole-2-carbonyl)-amino]-3-o-tolyl-propionic acid]
23 | 457 nM | O=C(O)C[C@H](NC(=O)c1nc(-c2ccccc2)cs1)c1ccc(F)cc1 [Example 51, (S)-3-(4-Fluoro-phenyl)-3-[(4-phenyl-thiazole-2-carbonyl)-amino]-propionic acid]
24 | 280 nM | Cc1ccccc1-c1nc(C(=O)N[C@@H](CC(=O)O)c2cccc(F)c2)cs1 [Example 47, (S)-3-(3-Fluoro-phenyl)-3-[(2-o-tolyl-thiazole-4-carbonyl)-amino]-propionic acid]
25 | 555 nM | O=C(O)C[C@H](NC(=O)c1csc(-c2cccc(Cl)c2Cl)n1)c1ccc(Cl)cc1Cl [Example 23, (S)-3-(2,4-Dichloro-phenyl)-3-{[2-(2,3-dichloro-phenyl)-thiazole-4-carbonyl]-amino}-propionic acid]
26 | 583 nM | O=C(O)C[C@H](NC(=O)c1csc(-c2cccc(Cl)c2Cl)n1)c1cccc(Cl)c1 [Example 41, (S)-3-(3-Chloro-phenyl)-3-{[2-(2,3-dichloro-phenyl)-thiazole-4-carbonyl]-amino}-propionic acid]
27 | 149 nM | Cc1ccccc1-c1nc(C(=O)N[C@@H](CC(=O)O)c2ccccc2Cl)cs1 [Example 26, (S)-3-(2-Chloro-phenyl)-3-[(2-o-tolyl-thiazole-4-carbonyl)-amino]-propionic acid]
28 | 121 nM | Cc1ccccc1[C@H](CC(=O)O)NC(=O)c1csc(-c2ccc(Cl)cc2)n1 [Example 109, (S)-3-{[2-(4-Chloro-phenyl)-thiazole-4-carbonyl]-amino}-3-o-tolyl-propionic acid]
29 | 186 nM | O=C(O)C[C@H](NC(=O)c1csc(-c2ccccc2Cl)n1)c1ccccc1 [Example 83, (S)-3-{[2-(2-Chloro-phenyl)-thiazole-4-carbonyl]-amino}-3-phenyl-propionic acid]
